This is an account of results in US20130344008A1, “NONCARIOUS MATERIAL AND ANTICARIOUS AGENT CONTAINING RARE SUGAR” (priority 2006, published 2013).

In one experiment the test system is caries. The following applies: cited from earlier work.
Experiment [1] has as its system S. mutans strain JCM5075. Briefly: Example 1: optical density and pH of S. mutans JCM5075 cultures in BHI broth with rare sugars, with or without sucrose. Format: cell-based, Streptococcus mutans. The following applies: for Optical density (OD) 12 hours later: OD600. The source says:
S. mutans strains characteristically form insoluble glucan on addition of sucrose, to generate acids and reduce the pH of the culture medium, which is considered to cause decalcification of teeth on dental surface to form decayed teeth (the reason why the strains are designated bacteria causing decayed teeth). JCM 5075 of S. mutans strains and the Brain Heart Infusion (BHI) broth were used to assay the optical density (the increase of the number of the bacterial cells) and the pH change in individual rare sugar solutions with or without sucrose added. As the rare sugars, there were used D-fructose, L-fructose, D-sorbose, L-sorbose, D-psicose, L-psicose, D-tagatose and L-tagatose. The rare sugars used were supplied from the Rare Sugar Research Center, the National University Corporation Kagawa University.
The strain JCM5075 thawed from −80° C. stock was cultured for 48 hours, and was adjusted to OD 0.3. 100 μl of the resulting culture was added to each 2-ml portion of the BHI broths under individual conditions, to assay the optical density and the pH 24 hours later (observation with naked eyes and absorbance: OD600).
After collecting a part of the liquid culture and centrifuging the culture, the pH of the resulting supernatant was measured with a pH meter. The results are shown in Table 2 (0, 6, 8, 12 and 24 hours after the addition of the bacteria to the BHI broth) and FIG. 3.

The subject of experiment [2] is S. mutans strain MT 8148 (JCM5175). Briefly: Example 2: bacterial growth (OD 660 nm) and pH of S. mutans culture in phenol red broth with 1% test substance. The conditions noted are these: PRB broth, 37° C., 48 hours later; for OD: bacterial growth, absorbance at 660 nm. The class given is cell-based, Streptococcus mutans. The method, then: D-Psicose and L-psicose were used to assay the actions thereof against S. mutans. D-Psicose and L-psicose were supplied from the Rare Sugar Research Center, the National University Corporation Kagawa University. The S. mutans strain MT 8148 (JCM5175) was plated in a Brain Heart Infusion broth supplemented with agar for culturing at 37° C. for 48 hours. The liquid culture was inoculated in a fresh Brain Heart Infusion broth, for culturing at 37° C. for 24 hours. The liquid culture was inoculated in a phenol red broth (PRB broth) containing a test substance at 1%, for culturing at 37° C.; the bacterial growth (absorbance at 660 nm: OD) and the pH were assayed 48 hours later. Asa control, glucose, fructose, sucrose and Xylitol were used. After culturing for a given period of time, additionally, the optical density of apart of the liquid culture was measured with an absorptiometer (OD 660 nm).

Experiment [3] shares this test system. Briefly: Example 4: cariostatic test with D-psicose and catechin, pH of culture in PRB broth. The class given is cell-based, Streptococcus mutans. The following applies: for pH: PRB broth, 20 hours later. The method, then: A cariostatic test with D-psicose was carried out. Additionally, the effect of catechins added was also examined. D-Psicose was supplied from the Rare Sugar Research Center, the National University Corporation Kagawa University. As the catechin, Polyphenon 70A of Mitsui Norin Co., Ltd. was used. The S. mutans strain MT 8148 (JCM5175) was plated in a Brain Heart Infusion broth supplemented with agar, for culturing at 37° C. for 48 hours. Further, the resulting liquid culture was inoculated in a fresh Brain Heart Infusion broth, for culturing at 37° C. for 24 hours. The liquid preculture was inoculated in a phenol red broth (PRB broth) containing sugars and catechins at the following concentrations for culturing at 37° C.; 20 hours later, the pH was measured. As a control, sucrose was used.

The subject of experiment [4] is S. mutans strain (JCM5075). As to the kind of experiment: Example 3: pH of S. mutans culture in BHI broth with test substance after 48-hour culturing. Format: cell-based, Streptococcus mutans. The following applies: 1% sucrose (control), BHI broth, after 48-hour culturing. The method, then:
Allitol and D-sorbose were used to assay the actions thereof against S. mutans. Allitol and D-sorbose were supplied from the Rare Sugar Research Center, the National University Corporation Kagawa University. The S. mutans strain (JCM5075) was plated in a Brain Heart Infusion broth containing a 10% test substance, to measure the pH of the liquid culture after 48-hour culturing. As a control, 1% sucrose and 10% Xylitol were used.

Experiment [5] concerns S. mutans strain JCM5075. Briefly: Reference Example: formation of insoluble glucan with S. mutans, naked-eye observation. Format: cell-based, Streptococcus mutans. The conditions noted are these: sucrose added, BHI broth, anaerobic conditions, FIG. 1. The method, then: S. mutans strains characteristically form insoluble glucan on addition of sucrose, to reduce the pH of the culture medium, which is considered to cause decalcification of dental surface to form decayed teeth (the reason why the strains are designated bacteria causing decayed teeth). The S. mutans strain JCM5075 was plated in a Brain Heart Infusion (BHI) broth, for culturing under anaerobic conditions, to visually determine the bacterial growth (potency for forming insoluble glucan: optical density) with naked eyes.

Where [6] appears, read: 5% test substance + 1% sucrose, BHI broth.
Setting [7] is: 5% test substance, no sucrose, BHI broth.
[8] abbreviates: 10% test substance + 1% sucrose, BHI broth.
The mark [9] stands for this setting: 10% test substance, no sucrose, BHI broth.

In the case of `Oc1cc(O)c2c(c1)O[C@H](c1cc(O)c(O)c(O)c1)[C@@H](O)C2` [gallocatechin], the “effective concentration against caries in the test system” value in the experiment with caries is 125 µg/mL.

Consider `O=C(CO)[C@H](O)[C@H](O)[C@H](O)CO` [D-psicose], for which, in the experiment on S. mutans strain JCM5075 [1] (setting [6]), the “pH 0 hour later” value is listed as 7.4, the “pH 6 hours later” value is reported as 7.3, the “pH 8 hours later” value is 7.2 and the “pH 12 hours later” value was determined as 7.2. Besides, in the experiment with S. mutans strain JCM5075 [1] (setting [6]), the “pH 24 hours later” value was 6.4. In the experiment with S. mutans strain JCM5075 [1] (setting [7]), the “pH 0 hour later” value worked out at 7.4, the “pH 6 hours later” value was 7.3, the “pH 8 hours later” value worked out at 7.2 and the “pH 12 hours later” value is given as 7.2. In addition, the “pH 24 hours later” value in the experiment with S. mutans strain JCM5075 [1] (setting [7]) is 7.0. Besides, in the experiment with S. mutans strain JCM5075 [1] (setting [8]), the “pH 0 hour later” value was determined as 7.3, the “pH 6 hours later” value turned out to be 7.2, the “pH 8 hours later” value is recorded as 7.2 and the “pH 12 hours later” value is 7.2. For the same compound, the “pH 24 hours later” value with S. mutans strain JCM5075 [1] (setting [8]) turned out to be 7.1. Moreover, the “Optical density (OD) 12 hours later” value with S. mutans strain JCM5075 [1] (10% test substance, BHI broth) is listed as 0.158. Also, in the experiment on S. mutans strain JCM5075 [1] (setting [9]), the “pH 0 hour later” value came out at 7.3, the “pH 6 hours later” value was determined as 7.2, the “pH 8 hours later” value is 7.2 and the “pH 12 hours later” value is 7.2. For the same compound, the “pH 24 hours later” value in the experiment on S. mutans strain JCM5075 [1] (setting [9]) is reported as 7.2. Also, the “suppression of the pH reduction” value with S. mutans strain JCM5075 [1] (24 hours later, also with 1% sucrose addition, FIG. 3) is “most highly suppressed the pH reduction”. Also, the “suppression of OD increase compared with no addition” value in the experiment on S. mutans strain JCM5075 [1] (BHI broth, FIG. 2 / Table 1) is on record as “suppression of OD increase was observed”. In addition, in experiment [2], the pH was 5.9 and the OD is listed as 0.02. Further, the pH in experiment [3] (3.3% test substance + 0.25% sucrose) was found to be 4.4. For the same compound, the pH in experiment [3] (5.0% test substance + 0.25% sucrose) is recorded as 5.5. Further, in experiment [3] (D-psicose at a concentration of 5%, 0.25% sucrose), the “action of suppressing the pH reduction in a culture medium with addition of sucrose” value was “exerted an action of suppressing the pH reduction”.

In the case of `OC[C@H]1O[C@@](CO)(O[C@H]2O[C@H](CO)[C@@H](O)[C@H](O)[C@H]2O)[C@@H](O)[C@@H]1O` [sucrose, reference compound], in the experiment on S. mutans strain JCM5075 [1] (1% sucrose alone, BHI broth), the “pH 0 hour later” value was 7.4, the “pH 6 hours later” value is on record as 7.2, the “pH 8 hours later” value was 7.2 and the “pH 12 hours later” value was determined as 6.7. Further, the “pH 24 hours later” value with S. mutans strain JCM5075 [1] (1% sucrose alone, BHI broth) amounted to 4.7. Besides, the “pH change 24 hours later (in words)” value in the experiment on S. mutans strain JCM5075 [1] (1% sucrose, or 10% Xylitol+1% sucrose, or 10% fructose+1% sucrose, FIG. 3) is given as “highly inclined to acidity”. Besides, the “Optical density (OD) 12 hours later” value in the experiment on S. mutans strain JCM5075 [1] (1% test substance, BHI broth) is reported as 0.060. Further, the “precipitation of bacterial masses (insoluble glucan) under observation with naked eyes” value with S. mutans strain JCM5075 [1] (addition of 1% sucrose, addition of 10% D-fructose, 24 hours later) is on record as “caused the precipitation of bacterial masses (insoluble glucan)”. In experiment [2], this compound registered a pH of 3.9 and an OD of 0.14. In addition, the pH in experiment [4] is on record as 4.0. For the same compound, the pH in experiment [3] (0.25% sucrose alone, 37° C.) came out at 4.5. Further, in the experiment on S. mutans strain JCM5075 [5], the “formation of insoluble glucan observed with naked eyes” value was “formed insoluble glucan”.
